The values below come from patent US11608335B2, “Somatostatin modulators and uses thereof” (CRINETICS PHARMACEUTICALS, INC., priority 2018, dated 2023).

For assay [1], the target named is T1, human somatostatin receptor subtype 2 (Homo sapiens, UniProt P30874).
T1 construct: expressed in transfected cells
Kind of assay: cAMP assay for SST2R (inhibition of cAMP via human SST2 receptor). The settings on record: Table B, read-out: SST2 potency. The class given is cell-based. The source says: cAMP Assay Protocol for SST2R:

Assay [2] deals with human somatostatin receptor subtype 5 (Homo sapiens, UniProt P35346). Kind of assay: cAMP assay for SST5R (inhibition of cAMP via human SST5 receptor). The settings on record: for Fold selectivity for SST5 vs SST2: SST5 over SST2, class symbols.
Where [3] appears, read: read-out: SST5 potency, inhibition of cAMP via human SST5 receptor, Table B.

Where two headings read alike, the source gives them in different places.

T1 sequence (P30874 whole entry): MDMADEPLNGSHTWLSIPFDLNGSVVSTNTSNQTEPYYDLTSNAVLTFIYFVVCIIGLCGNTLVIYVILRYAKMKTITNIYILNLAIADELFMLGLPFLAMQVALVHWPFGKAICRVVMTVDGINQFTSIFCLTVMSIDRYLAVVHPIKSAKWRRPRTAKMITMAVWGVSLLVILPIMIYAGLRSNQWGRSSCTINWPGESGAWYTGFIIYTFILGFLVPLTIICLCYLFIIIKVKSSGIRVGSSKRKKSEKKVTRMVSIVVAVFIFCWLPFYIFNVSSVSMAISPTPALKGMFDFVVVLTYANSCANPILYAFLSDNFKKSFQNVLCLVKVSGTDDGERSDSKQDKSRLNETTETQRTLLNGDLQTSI
Chain of human somatostatin receptor subtype 5 (P35346 whole entry): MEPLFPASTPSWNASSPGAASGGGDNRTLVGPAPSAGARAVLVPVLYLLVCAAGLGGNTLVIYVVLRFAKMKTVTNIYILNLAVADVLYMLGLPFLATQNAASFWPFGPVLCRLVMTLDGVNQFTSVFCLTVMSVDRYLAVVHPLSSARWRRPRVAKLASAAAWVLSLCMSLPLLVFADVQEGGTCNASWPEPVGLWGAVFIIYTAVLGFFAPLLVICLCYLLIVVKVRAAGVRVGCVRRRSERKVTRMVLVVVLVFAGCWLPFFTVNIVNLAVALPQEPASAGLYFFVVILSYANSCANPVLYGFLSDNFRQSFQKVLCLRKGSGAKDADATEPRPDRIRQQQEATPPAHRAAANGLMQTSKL

Consider `CC(N)C1CN(c2c(-c3cc(F)cc(C(F)(F)F)c3)cncc2-c2nc3cc(F)cc(F)c3[nH]2)C1` (stereo not drawn) [Compound 1-71, 1-{1-[3-(4,6-difluoro-1H-1,3-benzodiazol-2-yl)-5-[3-fluoro-5-(trifluoromethyl)phenyl]pyridin-4-yl]azetidin-3-yl}ethan-1-amine], for which the EC50 in assay [1] is greater than 1000 nM; in assay [2] (setting [3]) it was less than 10 nM. Further, the “Fold selectivity for SST5 vs SST2” value in assay [2] is reported as “+++ (+++=≥500)”.
Regarding `CC1(N)CCN(c2c(-c3cc(F)cc(Cl)c3)cncc2-c2nc3cccc(F)c3[nH]2)C1` (stereo not drawn) [Compound 2-4, 1-[3-(3-chloro-5-fluorophenyl)-5-(4-fluoro-1H-1,3-benzodiazol-2-yl)pyridin-4-yl]-3-methylpyrrolidin-3-amine], the EC50 in assay [1] is 10 to 100 nM; in assay [2] it was less than 10 nM; in assay [2] (setting [3]), less than 10 nM. In addition, the “Fold selectivity for SST5 vs SST2” value in assay [2] is “++ (++=100 to 499)”.
For `CC1(N)CCN(c2c(-c3cc(F)cc(C#N)c3)cncc2-c2nc3cccc(F)c3[nH]2)C1` (stereo not drawn) [Compound 2-6, 3-[4-(3-amino-3-methylpyrrolidin-1-yl)-5-(4-fluoro-1H-1,3-benzodiazol-2-yl)pyridin-3-yl]-5-fluorobenzonitrile], the EC50 in assay [1] was 100 to 1000 nM; in assay [2] it was less than 10 nM; in assay [2] (setting [3]) it was less than 10 nM. For the same compound, the “Fold selectivity for SST5 vs SST2” value in assay [2] is recorded as “+++ (+++=≥500)”.
Consider `N#Cc1cccc(-c2cncc(-c3nc4cccc(F)c4[nH]3)c2N2CC[C@H](N)C2)c1` [Compound 2-7, 3-{4-[(3S)-3-aminopyrrolidin-1-yl]-5-(4-fluoro-1H-1,3-benzodiazol-2-yl)pyridin-3-yl}benzonitrile], for which the EC50 in assay [1] is 100 to 1000 nM; in assay [2] it was less than 10 nM; in assay [2] (setting [3]), less than 10 nM. The “Fold selectivity for SST5 vs SST2” value in assay [2] is on record as “+++ (+++=≥500)”.
For `CC1(N)CCN(c2c(-c3cccc(OC(F)(F)F)c3)cncc2-c2nc3cccc(F)c3[nH]2)C1` (stereo not drawn) [Compound 2-10, 1-[3-(4-fluoro-1H-1,3-benzodiazol-2-yl)-5-[3-(trifluoromethoxy)phenyl]pyridin-4-yl]-3-methylpyrrolidin-3-amine], the EC50 is 100 to 1000 nM in assay [1], less than 10 nM in assay [2] and less than 10 nM in assay [2] (setting [3]). Further, in assay [2], the “Fold selectivity for SST5 vs SST2” value is recorded as “+++ (+++=≥500)”.
For `CC1(N)CCN(c2c(-c3cccc(C#N)c3)cncc2-c2nc3cccc(F)c3[nH]2)C1` (stereo not drawn) [Compound 2-13, 3-[4-(3-amino-3-methylpyrrolidin-1-yl)-5-(4-fluoro-1H-1,3-benzodiazol-2-yl)pyridin-3-yl]benzonitrile], the EC50 is 100 to 1000 nM in assay [1], less than 10 nM in assay [2] and less than 10 nM in assay [2] (setting [3]). The “Fold selectivity for SST5 vs SST2” value in assay [2] was “+++ (+++=≥500)”.
On to `CC1(N)CCN(c2c(-c3cccc(C(N)=O)c3)cncc2-c2nc3c(F)cccc3[nH]2)C1` (stereo not drawn) [Compound 2-18, 3-[4-(3-amino-3-methylpyrrolidin-1-yl)-5-(4-fluoro-1H-1,3-benzodiazol-2-yl)pyridin-3-yl]benzamide], for which the EC50 is greater than 1000 nM in assay [1], less than 10 nM in assay [2] and less than 10 nM in assay [2] (setting [3]). The “Fold selectivity for SST5 vs SST2” value in assay [2] is listed as “+++ (+++=≥500)”.
`CC1(N)CCN(c2c(-c3cc(F)cc(C(N)=O)c3)cncc2-c2nc3cccc(F)c3[nH]2)C1` (stereo not drawn) [Compound 2-20, 3-[4-(3-amino-3-methylpyrrolidin-1-yl)-5-(4-fluoro-1H-1,3-benzodiazol-2-yl)pyridin-3-yl]-5-fluorobenzamide]: the EC50 in assay [1] is 100 to 1000 nM; in assay [2], less than 10 nM; in assay [2] (setting [3]) it was less than 10 nM. Further, the “Fold selectivity for SST5 vs SST2” value in assay [2] is “+++ (+++=≥500)”.
For `CC1(N)CCN(c2c(-c3cccc(S(C)(=O)=O)c3)cncc2-c2nc3cccc(F)c3[nH]2)C1` (stereo not drawn) [Compound 2-21, 1-[3-(4-fluoro-1H-1,3-benzodiazol-2-yl)-5-(3-methanesulfonylphenyl)pyridin-4-yl]-3-methylpyrrolidin-3-amine], the EC50 is greater than 1000 nM in assay [1], less than 10 nM in assay [2] and less than 10 nM in assay [2] (setting [3]). The “Fold selectivity for SST5 vs SST2” value in assay [2] is listed as “+++ (+++=≥500)”.
Consider `CC1(N)CCN(c2c(-c3ccc4c(c3)OCC4)cncc2-c2nc3cccc(F)c3[nH]2)C1` (stereo not drawn) [Compound 2-22, 1-[3-(2,3-dihydro-1-benzofuran-6-yl)-5-(4-fluoro-1H-1,3-benzodiazol-2-yl)pyridin-4-yl]-3-methylpyrrolidin-3-amine], for which the results for the EC50 in assay [1], in assay [2] and in assay [2] (setting [3]) were 100 to 1000 nM, less than 10 nM and less than 10 nM, respectively. Further, in assay [2], the “Fold selectivity for SST5 vs SST2” value was “++ (++=100 to 499)”.
`N#Cc1cc(-c2cncc(-c3nc4cccc(F)c4[nH]3)c2N2CC[C@H](N)C2)ccc1F` [Compound 2-23, 5-{4-[(3S)-3-aminopyrrolidin-1-yl]-5-(4-fluoro-1H-1,3-benzodiazol-2-yl)pyridin-3-yl}-2-fluorobenzonitrile]: the figures for the EC50 in assay [1], in assay [2] and in assay [2] (setting [3]) were 100 to 1000 nM, less than 10 nM and less than 10 nM, respectively. Moreover, the “Fold selectivity for SST5 vs SST2” value in assay [2] was “+++ (+++=≥500)”.
In the case of `N#Cc1ccc(-c2cncc(-c3nc4cccc(F)c4[nH]3)c2N2CC[C@H](N)C2)s1` [Compound 2-26, 5-{4-[(3S)-3-aminopyrrolidin-1-yl]-5-(4-fluoro-1H-1,3-benzodiazol-2-yl)pyridin-3-yl}thiophene-2-carbonitrile], the EC50 is 100 to 1000 nM in assay [1], less than 10 nM in assay [2] and less than 10 nM in assay [2] (setting [3]). Further, the “Fold selectivity for SST5 vs SST2” value in assay [2] is recorded as “++ (++=100 to 499)”.
For the compound `CC1(N)CCN(c2c(-c3cc(F)cc(OCC#N)c3)cncc2-c2nc3cccc(F)c3[nH]2)C1` (stereo not drawn) [Compound 2-27, 2-{3-[4-(3-amino-3-methylpyrrolidin-1-yl)-5-(4-fluoro-1H-1,3-benzodiazol-2-yl)pyridin-3-yl]-5-fluorophenoxy}acetonitrile], the EC50 was 100 to 1000 nM in assay [1], less than 10 nM in assay [2] and less than 10 nM in assay [2] (setting [3]). Further, in assay [2], the “Fold selectivity for SST5 vs SST2” value is on record as “++ (++=100 to 499)”.
Turning to `CC1(N)CCN(c2c(-c3cccc(Cl)c3)cncc2-c2nc3cccc(F)c3[nH]2)C1` (stereo not drawn) [Compound 2-28, 1-[3-(3-chlorophenyl)-5-(4-fluoro-1H-1,3-benzodiazol-2-yl)pyridin-4-yl]-3-methylpyrrolidin-3-amine], the EC50 is 10 to 100 nM in assay [1], less than 10 nM in assay [2] and less than 10 nM in assay [2] (setting [3]). Further, the “Fold selectivity for SST5 vs SST2” value in assay [2] is “++ (++=100 to 499)”.
`CC1(N)CCN(c2c(-c3ccc4cc[nH]c4c3)cncc2-c2nc3cccc(F)c3[nH]2)C1` (stereo not drawn) [Compound 2-29, 1-[3-(4-fluoro-1H-1,3-benzodiazol-2-yl)-5-(1H-indol-6-yl)pyridin-4-yl]-3-methylpyrrolidin-3-amine]: the EC50 in assay [1] is 100 to 1000 nM; in assay [2], less than 10 nM; in assay [2] (setting [3]), less than 10 nM. Besides, the “Fold selectivity for SST5 vs SST2” value in assay [2] is listed as “+ (+=10 to 99)”.
Consider `Cc1cccc2nc(-c3cncc(-c4ccc(F)c(C#N)c4)c3N3CC[C@H](N)C3)[nH]c12` [Compound 2-37, 5-{4-[(3S)-3-aminopyrrolidin-1-yl]-5-(4-methyl-1H-1,3-benzodiazol-2-yl)pyridin-3-yl}-2-fluorobenzonitrile], for which the EC50 was 100 to 1000 nM in assay [1], less than 10 nM in assay [2] and less than 10 nM in assay [2] (setting [3]). For the same compound, the “Fold selectivity for SST5 vs SST2” value in assay [2] is listed as “+++ (+++=≥500)”.
Turning to `N#Cc1cc(F)cc(-c2cncc(-c3nc4c(F)ccc(F)c4[nH]3)c2N2CC[C@H](N)C2)c1` [Compound 2-38, 3-{4-[(3S)-3-aminopyrrolidin-1-yl]-5-(4,7-difluoro-1H-1,3-benzodiazol-2-yl)pyridin-3-yl}-5-fluorobenzonitrile], the EC50 in assay [1] was 100 to 1000 nM; in assay [2] it was less than 10 nM; in assay [2] (setting [3]), less than 10 nM. Moreover, the “Fold selectivity for SST5 vs SST2” value in assay [2] is “+++ (+++=≥500)”.
On to `N#Cc1cc(-c2cncc(-c3nc4cccc(F)c4[nH]3)c2N2CC[C@H](N)C2)ccc1Cl` [Compound 2-39, 5-{4-[(3S)-3-aminopyrrolidin-1-yl]-5-(4-fluoro-1H-1,3-benzodiazol-2-yl)pyridin-3-yl}-2-chlorobenzonitrile], for which the EC50 is 100 to 1000 nM in assay [1], less than 10 nM in assay [2] and less than 10 nM in assay [2] (setting [3]). Besides, the “Fold selectivity for SST5 vs SST2” value in assay [2] is recorded as “++ (++=100 to 499)”.
For the compound `NC(=O)c1cccc(-c2cncc(-c3nc4c(F)ccc(F)c4[nH]3)c2N2CC[C@H](N)C2)c1` [Compound 2-43, 3-{4-[(3S)-3-aminopyrrolidin-1-yl]-5-(4,7-difluoro-1H-1,3-benzodiazol-2-yl)pyridin-3-yl}benzamide], the EC50 in assay [1] is greater than 1000 nM; in assay [2] it was 10 to 100 nM; in assay [2] (setting [3]) it was 10 to 100 nM. Moreover, the “Fold selectivity for SST5 vs SST2” value in assay [2] is recorded as “+++ (+++=≥500)”.
Consider `N#Cc1cc(-c2cncc(-c3nc4c(F)ccc(F)c4[nH]3)c2N2CC[C@H](N)C2)ccc1F` [Compound 2-44, 5-{4-[(3S)-3-aminopyrrolidin-1-yl]-5-(4,7-difluoro-1H-1,3-benzodiazol-2-yl)pyridin-3-yl}-2-fluorobenzonitrile], for which the EC50 in assay [1] was 100 to 1000 nM; in assay [2] it was less than 10 nM; in assay [2] (setting [3]), less than 10 nM. In assay [2], the “Fold selectivity for SST5 vs SST2” value is given as “+++ (+++=≥500)”.
On to `Cc1ccc(-c2cncc(-c3nc4c(F)ccc(F)c4[nH]3)c2N2CC[C@H](N)C2)cc1C#N` [Compound 2-49, 5-{4-[(3S)-3-aminopyrrolidin-1-yl]-5-(4,7-difluoro-1H-1,3-benzodiazol-2-yl)pyridin-3-yl}-2-methylbenzonitrile], for which the EC50 is 100 to 1000 nM in assay [1], less than 10 nM in assay [2] and less than 10 nM in assay [2] (setting [3]). The “Fold selectivity for SST5 vs SST2” value in assay [2] is “++ (++=100 to 499)”.
With `N#Cc1cc(-c2cncc(-c3nc4ccc(F)c(F)c4[nH]3)c2N2CC[C@H](N)C2)ccc1F` [Compound 2-52, 5-{4-[(3S)-3-aminopyrrolidin-1-yl]-5-(4,5-difluoro-1H-1,3-benzodiazol-2-yl)pyridin-3-yl}-2-fluorobenzonitrile], the EC50 in assay [1] was 100 to 1000 nM; in assay [2], less than 10 nM; in assay [2] (setting [3]) it was less than 10 nM. In assay [2], the “Fold selectivity for SST5 vs SST2” value is on record as “+++ (+++=≥500)”.
